The target of assay [1] is T1, PDK1 (Homo sapiens, UniProt O15530).
T1 construct: endogenous in cells; host or cells: PC3 cells
T1 sequence (O15530 1-556): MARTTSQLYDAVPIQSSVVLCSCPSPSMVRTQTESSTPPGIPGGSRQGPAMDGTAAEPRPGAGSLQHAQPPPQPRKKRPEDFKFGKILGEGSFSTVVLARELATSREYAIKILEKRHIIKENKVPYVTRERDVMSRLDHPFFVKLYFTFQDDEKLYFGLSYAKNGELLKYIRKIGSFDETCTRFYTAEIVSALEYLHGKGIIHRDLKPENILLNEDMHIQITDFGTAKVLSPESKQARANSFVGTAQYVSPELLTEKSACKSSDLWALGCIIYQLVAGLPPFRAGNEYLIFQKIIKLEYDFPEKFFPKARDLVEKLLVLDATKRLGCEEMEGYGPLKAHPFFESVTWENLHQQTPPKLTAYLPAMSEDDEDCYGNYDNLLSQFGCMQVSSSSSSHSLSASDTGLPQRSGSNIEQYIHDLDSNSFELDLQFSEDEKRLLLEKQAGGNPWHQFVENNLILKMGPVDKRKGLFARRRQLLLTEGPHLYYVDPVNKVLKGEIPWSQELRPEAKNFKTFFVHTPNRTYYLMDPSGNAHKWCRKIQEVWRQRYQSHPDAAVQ
As to the kind of experiment: Cellular testing of PDK1 kinase inhibitors in PC3 cells (Luminex, phospho-T308-PKB). The format is cell-based. Particulars: 30 min, serum-free. The procedure, abridged: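 PC3 cells were treated 30 min serum-free with 7-concentration compound series, lysed, and phospho-T308-PKB measured by Luminex bead assay (anti-total PKB capture, phospho-T308 detection). Blank was 10 μM staurosporine; maximum was 0.3% DMSO; IC50 derived from percent of control.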

The target of assay [2] is T2, PDK1 (Homo sapiens, UniProt O15530).
T2 construct: His6 (N)
T2 sequence (O15530 51-556 limits assumed): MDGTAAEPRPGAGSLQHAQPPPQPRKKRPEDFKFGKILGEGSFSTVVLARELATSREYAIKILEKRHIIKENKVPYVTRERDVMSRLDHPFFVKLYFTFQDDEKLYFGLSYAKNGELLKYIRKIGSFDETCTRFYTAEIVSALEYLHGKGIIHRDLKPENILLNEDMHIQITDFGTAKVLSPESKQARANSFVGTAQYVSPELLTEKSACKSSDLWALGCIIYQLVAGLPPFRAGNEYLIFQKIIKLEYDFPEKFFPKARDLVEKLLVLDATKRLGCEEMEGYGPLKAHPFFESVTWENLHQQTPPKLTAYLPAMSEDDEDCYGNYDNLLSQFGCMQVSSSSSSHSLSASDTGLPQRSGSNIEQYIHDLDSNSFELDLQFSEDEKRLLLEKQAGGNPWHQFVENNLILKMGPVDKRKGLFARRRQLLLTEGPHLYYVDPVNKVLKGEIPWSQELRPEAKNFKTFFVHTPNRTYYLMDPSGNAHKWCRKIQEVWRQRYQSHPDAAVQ
Kind of assay: Test for the inhibition of PDK1 (flashplate, 33P-ATP). Particulars: His6-PDK1 (1-50) 3.4 nM, 4 μM ATP, 30° C., 60 min; read-out: IC50 [PDK1] biochemical. The method, boiled down:
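His6-PDK1 (1-50) (3.4 nM) with biotinylated peptide substrate (400 nM) and 4 μM ATP plus ^33P-ATP, 60 min at 30° C; incorporated radioactivity counted. Blank from 100 nM staurosporin subtracted, activity expressed as % of compound-free control, IC50 derived from dilution series.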

For orientation: IC50 means the point on the concentration scale where inhibition reaches its midpoint.

In the case of `Cn1cc(-c2cnc3[nH]cc(-c4nnc(C5(c6ccccc6Cl)CC5)o4)c3c2)cn1` [A83], the 50% inhibitory concentration (IC50) at PDK1 [1] and on PDK1 [2] was 0.5 to 1000 nM in each case.
`Cn1cc(-c2cnc3[nH]cc(-c4cc(C(O)c5ccccc5)n(C)n4)c3c2)cn1` (stereo not drawn) [A84]: the concentration for half-maximal inhibition (IC50) was in the range of 1000 to 10000 nM against PDK1 [1] and 0.5 to 1000 nM at PDK1 [2].
The like results for `Cc1cc(C2(c3nnc(-c4c[nH]c5ncc(-c6cnn(C)c6)cc45)o3)CC2)ccn1` [A85, 5-(1-methyl-1H-pyrazol-4-yl)-3-{5-[1-(2-methylpyridin-4-yl)-cyclopropyl]-1,3,4-oxadiazol-2-yl}-1H-pyrrolo[2,3-b]pyridine] were, in that order, 1000 to 10000 nM and 1000 to 10000 nM.
In the case of `Cn1cc(-c2cnc3[nH]cc(-c4nnc(C(O)c5ccccc5C(F)(F)F)o4)c3c2)cn1` (stereo not drawn) [A86], the IC50 against PDK1 [1] and at PDK1 [2] was 0.5 to 1000 nM throughout.
Turning to `Cn1cc(-c2cnc3[nH]cc(-c4n[nH]c(C(O)c5ccccc5Cl)n4)c3c2)cn1` (stereo not drawn) [A87, (2-chlorophenyl)-{5-[5-(1-methyl-1H-pyrazol-4-yl)-1H-pyrrolo[2,3-b]pyridin-3-yl]-2H-1,2,4-triazol-3-yl}-methanol], the IC50 lay within 1000 to 10000 nM at PDK1 [1] and 0.5 to 1000 nM at PDK1 [2].
In the case of `Cn1cc(-c2cnc3[nH]cc(-c4cc(C(C)(O)c5ccccc5Cl)[nH]n4)c3c2)cn1` (stereo not drawn) [A88], the concentration for half-maximal inhibition (IC50) against PDK1 [1] was in the range of 1000 to 10000 nM; on PDK1 [2], 0.5 to 1000 nM.
The like results for `Cn1cc(-c2cnc3[nH]cc(-c4cc(C(C)(O)c5ccccc5Cl)on4)c3c2)cn1` (stereo not drawn) [A89] were, in that order, 0.5 to 1000 nM and 0.5 to 1000 nM.
On to `Cn1cc(-c2cnc3[nH]cc(-c4nnc(C5(c6ccnc(Cl)c6)CC5)o4)c3c2)cn1` [A91], for which the IC50 on PDK1 [1] and on PDK1 [2] was 1000 to 10000 nM throughout.
Take `Cn1cc(-c2cnc3[nH]cc(-c4cc(C(C)(O)c5ccc(=O)n(C)n5)on4)c3c2)cn1` (stereo not drawn) [A99, 6-(1-hydroxy-1-{3-[5-(1-methyl-1H-pyrazol-4-yl)-1H-pyrrolo-[2,3-b]pyridin-3-yl]isoxazol-5-yl}ethyl)-2-methyl-2H-pyridazin-3-one]: the figures for the IC50 at PDK1 [1] and at PDK1 [2] were 1000 to 10000 nM and 0.5 to 1000 nM, respectively.
As for `Cn1cc(-c2cnc3[nH]cc(-c4cc(C(O)(c5ccnnc5)C(C)(C)C)on4)c3c2)cn1` (stereo not drawn) [A100, 2,2-dimethyl-1-{3-[5-(1-methyl-1H-pyrazol-4-yl)-1H-pyrrolo-[2,3-b]pyridin-3-yl]isoxazol-5-yl}-1-pyridazin-4-ylpropan-1-ol], the values for the IC50 at PDK1 [1] and on PDK1 [2] were 1000 to 10000 nM and 0.5 to 1000 nM, respectively.
Turning to `Cn1cc(-c2cnc3[nH]cc(-c4cc(CO)on4)c3c2)cn1` [A105], the IC50 was in the range of 1000 to 10000 nM at PDK1 [1] and 0.5 to 1000 nM at PDK1 [2].
Consider `Cn1cc(-c2cnc3[nH]cc(-c4cc(C(O)c5ccccc5)nn4CCO)c3c2)cn1` (stereo not drawn) [A107], for which the IC50 lay in the range of 1000 to 10000 nM against PDK1 [1] and 0.5 to 1000 nM on PDK1 [2].
As for `Cn1cc(-c2cnc3[nH]cc(-c4nnc(C5(c6cccnc6)CCCC5)o4)c3c2)cn1` [A110], the IC50 against PDK1 [1] lay within 1000 to 10000 nM; on PDK1 [2], 0.5 to 1000 nM.
For the compound `Cn1cc(-c2cnc3[nH]cc(-c4nnc([C@H](N)c5ccccc5Cl)o4)c3c2)cn1` [A112], the half-maximal inhibitory concentration (IC50) on PDK1 [1] and on PDK1 [2] was 0.5 to 1000 nM each time.
As to `Cn1cc(-c2cnc3[nH]cc(-c4nnc([C@@H](N)c5ccccc5Cl)o4)c3c2)cn1` [A113], the IC50 lay within 1000 to 10000 nM at PDK1 [1] and 0.5 to 1000 nM on PDK1 [2].
`CN[C@@H](c1ccccc1)c1nnc(-c2c[nH]c3ncc(-c4cnn(C)c4)cc23)o1` [A116]: the IC50 lay in the range of 1000 to 10000 nM at PDK1 [1] and 0.5 to 1000 nM on PDK1 [2].
Turning to `Cn1cc(-c2cnc3[nH]cc(-c4nnc(C(N)c5cc(F)cc(F)c5)o4)c3c2)cn1` (stereo not drawn) [A117], the 50% inhibitory concentration (IC50) against PDK1 [1] and at PDK1 [2] was 1000 to 10000 nM in each case.
Turning to `Cn1cc(-c2cnc3[nH]cc(-c4nnc(C(N)c5ccccc5Cl)o4)c3c2)cn1` (stereo not drawn) [A118], the IC50 against PDK1 [1] and on PDK1 [2] was 0.5 to 1000 nM throughout.
With `Cn1cc(-c2cnc3[nH]cc(-c4nnc(C5(c6ccccn6)CC5)o4)c3c2)cn1` [A120], the IC50 on PDK1 [1] and on PDK1 [2] was 1000 to 10000 nM each time.
In the case of `Cn1cc(-c2cnc3[nH]cc(-c4n[nH]c(C5(c6ccc(Cl)nc6)CC5)n4)c3c2)cn1` [A122, 3-{5-[1-(6-chloropyridin-3-yl)cyclopropyl]-1H-1,2,4-triazol-3-yl}-5-(1-methyl-1H-pyrazol-4-yl)-1H-pyrrolo[2,3-b]pyridine], the concentration for half-maximal inhibition (IC50) against PDK1 [1] and on PDK1 [2] was 1000 to 10000 nM in each case.
`Cn1cc(-c2cnc3[nH]cc(-c4nnc(C5(c6ccc(Cl)nc6)CC5)o4)c3c2)cn1` [A123, 3-{5-[1-(6-chloropyridin-3-yl)cyclopropyl]-1,3,4-oxadiazol-2-yl}-5-(1-methyl-1H-pyrazol-4-yl)-1H-pyrrolo[2,3-b]pyridine]: the IC50 at PDK1 [1] and at PDK1 [2] was 1000 to 10000 nM throughout.
Regarding `Cn1cc(-c2cnc3[nH]cc(-c4nnc(C5(c6cccnc6)CC5)o4)c3c2)cn1` [A124, 5-(1-methyl-1H-pyrazol-4-yl)-3-[5-(1-pyridin-3-ylcyclopropyl)-1,3,4-oxadiazol-2-yl]-1H-pyrrolo[2,3-b]pyridine], the IC50 on PDK1 [1] fell in the range of 1000 to 10000 nM; at PDK1 [2], 0.5 to 1000 nM.
On to `Cn1cc(-c2cnc3[nH]cc(-c4n[nH]c(C5(c6cccnc6)CC5)n4)c3c2)cn1` [A125, 5-(1-methyl-1H-pyrazol-4-yl)-3-[5-(1-pyridin-3-ylcyclopropyl)-1H-1,2,4-triazol-3-yl]-1H-pyrrolo[2,3-b]pyridine], for which the IC50 against PDK1 [1] was in the range of 1000 to 10000 nM; on PDK1 [2], 0.5 to 1000 nM.
The like results for `Cn1cc(-c2cnc3[nH]cc(-c4n[nH]c(C5(c6ccc(=O)[nH]c6)CC5)n4)c3c2)cn1` [A126, 5-(1-{5-[5-(1-methyl-1H-pyrazol-4-yl)-1H-pyrrolo[2,3-b]pyridin-3-yl]-2H-1,2,4-triazol-3-yl}cyclopropyl)-1H-pyridin-2-one] were, in that order, 1000 to 10000 nM and 0.5 to 1000 nM.
With `COc1ccc(C2(c3nc(-c4c[nH]c5ncc(-c6cnn(C)c6)cc45)n[nH]3)CC2)cn1` [A127, 3-{5-[1-(6-methoxypyridin-3-yl)cyclopropyl]-1H-1,2,4-triazol-3-yl}-5-(1-methyl-1H-pyrazol-4-yl)-1H-pyrrolo[2,3-b]pyridine], the half-inhibitory concentration (IC50) at PDK1 [1] and on PDK1 [2] was 1000 to 10000 nM in each case.
In the case of `COC(=O)c1ccc(C(O)c2nnc(-c3c[nH]c4ncc(-c5cnn(C)c5)cc34)o2)c(Cl)c1` (stereo not drawn) [A128, methyl 3-chloro-4-(hydroxy-{5-[5-(1-methyl-1H-pyrazol-4-yl)-1H-pyrrolo[2,3-b]-pyridin-3-yl]-1,3,4-oxadiazol-2-yl}methyl)benzoate], the half-inhibitory concentration (IC50) at PDK1 [1] and on PDK1 [2] was 1000 to 10000 nM throughout.
`Cn1cc(-c2cnc3[nH]cc(-c4nnc(C(C)(O)c5ccccc5Cl)o4)c3c2)cn1` (stereo not drawn) [A132, I-(2-chlorophenyl)-1-{5-[5-(1-methyl-1H-pyrazol-4-yl)-1H-pyrrolo[2,3-b]pyridin-3-yl]-1,3,4-oxadiazol-2-yl}ethanol]: the results for the IC50 against PDK1 [1] and on PDK1 [2] were 1000 to 10000 nM and 0.5 to 1000 nM, respectively.

These data come from patent US20130245355A1, “3-HETARYL-SUBSTITUTED PYRROLO[2,3 B]PYRIDINE DERIVATIVES AS PDK1 INHIBITORS” (MERCK PATENT GMBH, priority 2010, published 2013).
